Test results from patent US10183936B2, “Hepatitis B core protein allosteric modulators” (priority 2014, dated 2019).

Assays:
[1] = tested on: AD38 cells; experiment: Viability of AD38 cells (Promega CellTiter-Glo) at the end of compound treatment; type: cell-based; details: 10 μM compound, 6 days, luminescence normalized against DMSO control wells (controls being 100%)
Description: (§1) Example 56: Assay Measuring Activity of Compounds on Viral Production in and on Viability of AD38 Cells
(§2) AD38 cells were then re-suspended with 10 mL of Treatment Medium and counted. Wells of a collagen coated 96-well NUNC microtiter plate were seeded at 50,000/well in 180 μL of Treatment Medium, and 20 μL of in treatment media with either 10% DMSO (Control) or a 10× solution of compound in 10% DMSO was added. Plates were incubated for 6 days at 37° C.
At the end of compound treatment period cell viability was assessed using a Promega CellTiter-Glo protocol. All supernatant was removed the previously treated 96-well microtiter plate, and 50 μL Tetracycline-free treatment medium (DMEM/F12 (1:1), lx Pen/step (cat#: 30-002-CL, Mediatech, Inc), with 2% FBS, Tet-system approved (cat#: 631106, Clontech), and 1% DMSO was added back to each well. Another 50 μL of CellTiter-Glo reagent solution (Promega, G7573) was then added at room temperature and the contents mixed for 2 minutes on an orbital shaker to induce cell lysis. This was followed by incubation at room temperature for 10 minutes to stabilize the luminescent signal. The luminescence was recorded for 0.2 seconds per well on a Tecan multimode platereader (Infinite M1000 pro). The luminescent signal from each well was normalized against that of untreated (DMSO) control wells. All results were reported percent viability (with controls being 100%).

[2] = tested on: HBV viral production in AD38 cells; experiment: Viral load production in AD38 cells by quantitative PCR of the HBV core sequence in supernatant; type: cell-based; details: Hepatitis B virus, 144 h; 10 μM compound, 6 days at 37° C., viral load in supernatant compared against DMSO control wells; read-out: AD38 Viral Load (CpAM/DMSO %) at 10 μM
Description: as §1, §2
Viral load production was assayed by quantitative PCR of the core sequence. Briefly, 5 μL of clarified supematant was added to a PCR reaction mixture that contained forward primers HBV-f 5′-CTGTGCCTTGGGTGGCTTT-3′, Reverse primers HBV-r 5′-[…]-3′ and Fluorescent TaqMan™ Probes HBV-probe 5′-FAM/AGCTCCAAA/ZEN/[…]/3IABkFQ-3′ in Quanta Biosciences PerfeCTa® qPCR Toughmix®, and was subsequently on an Applied Biosystems VIIA7 in a final volume of 20 μL. The PCR mixture was incubated at 45° C. for 5 minutes, then 95° C. for 10 min, followed by 40 cycles of 10 seconds at 95° C. and 20 seconds at 60° C. Viral load was quantitated against known standards by using ViiA™ 7 Software. Viral load in the supematant from wells with treated cells were compared against viral load in supernatant from DMSO control wells (≥3 per plate).

SMILES	AD38 Viability Normalized Result (CPAM/DMSO %) at 10 μM [1]	activity at 10 µM [2]
NS(=O)(=O)c1ccc(CCNC(=O)c2ccc3c(c2)NC(=O)c2ccccc2S3)cc1 [Compound 1101]	107%	15%
CN(C)S(=O)(=O)c1ccc(CCNC(=O)c2ccc3c(c2)NC(=O)c2ccccc2S3)cc1 [Compound 1102]	100%	1%
CS(=O)(=O)c1ccc(CCNC(=O)c2ccc3c(c2)NC(=O)c2ccccc2S3)cc1 [Compound 1103]	87%	2%
O=C(NCCc1ccccc1)c1ccc2c(c1)NC(=O)c1ccccc1S2 [Compound 1104]	85%	1%
O=C(NCCC1CCCCC1)c1ccc2c(c1)NC(=O)c1ccccc1S2 [Compound 1105]	101%	1%
O=C(NCc1ccccc1)c1ccc2c(c1)NC(=O)c1ccccc1S2 [Compound 1107]	106%	2%
O=C(NCCCc1ccccc1)c1ccc2c(c1)NC(=O)c1ccccc1S2 [Compound 1108]	105%	1%
O=C(NCCCCc1ccccc1)c1ccc2c(c1)NC(=O)c1ccccc1S2 [Compound 1109]	99%	6%
O=C(NCCc1ccc2ccccc2c1)c1ccc2c(c1)NC(=O)c1ccccc1S2 [Compound 1110]	119%	2%
O=C(NCCc1ccc(-c2ccccc2)cc1)c1ccc2c(c1)NC(=O)c1ccccc1S2 [Compound 1111]	89%	2%
O=C(NCc1ccc(-c2ccccc2)cc1)c1ccc2c(c1)NC(=O)c1ccccc1S2 [Compound 1112]	73%	4%
O=C(NCCc1ccc(F)cc1)c1ccc2c(c1)NC(=O)c1ccccc1S2 [Compound 1113]	99%	1%
COc1ccc(CCNC(=O)c2ccc3c(c2)NC(=O)c2ccccc2S3)cc1 [Compound 1114]	104%	1%
O=C(NCCc1ccc(O)cc1)c1ccc2c(c1)NC(=O)c1ccccc1S2 [Compound 1115]	106%	1%
COC(=O)c1ccc(CCNC(=O)c2ccc3c(c2)NC(=O)c2ccccc2S3)cc1 [Compound 1117]	108%	67%
O=C(NCCc1cccc(O)c1)c1ccc2c(c1)NC(=O)c1ccccc1S2 [Compound 1118]	95%	61%
N#Cc1ccc(CCNC(=O)c2ccc3c(c2)NC(=O)c2ccccc2S3)cc1 [Compound 1120]	94%	7%
O=C(NCCc1ccc(N2CCCCC2)cc1)c1ccc2c(c1)NC(=O)c1ccccc1S2 [Compound 1121]	109%	6%
O=C(NCCc1ccc(Br)cc1)c1ccc2c(c1)NC(=O)c1ccccc1S2 [Compound 1122]	86%	21%
CCCCNC(=O)c1ccc2c(c1)NC(=O)c1ccccc1S2 [Compound 1123]	95%	62%
COc1cccc(CCNC(=O)c2ccc3c(c2)NC(=O)c2ccccc2S3)c1 [Compound 1124]	99%	80%
COc1ccc(CCNC(=O)c2ccc3c(c2)NC(=O)c2ccccc2S3)cc1OC [Compound 1125]	108%	20%
COc1ccccc1CCNC(=O)c1ccc2c(c1)NC(=O)c1ccccc1S2 [Compound 1127]	94%	22%
O=C(NCCc1cccc(F)c1)c1ccc2c(c1)NC(=O)c1ccccc1S2 [Compound 1130]	101%	2%

SMILES	AD38 Viability Normalized Result (CPAM/DMSO %) at 10 μM [1]	activity at 10 µM [2]
CN1C(=O)c2ccccc2Sc2ccc(C(=O)NCCc3cccc(O)c3)cc21 [Compound 1133]	99%	94%
O=C(NCCCCc1ccncc1)c1ccc2c(c1)NC(=O)c1ccccc1S2 [Compound 1149]	118%	5%
O=C(NCCCCC1CCCCC1)c1ccc2c(c1)NC(=O)c1ccccc1S2 [Compound 1150]	22%	1%
CCCCCCNC(=O)c1ccc2c(c1)NC(=O)c1ccccc1S2 [Compound 1151]	50%	1%
CCCCCCCCNC(=O)c1ccc2c(c1)NC(=O)c1ccccc1S2 [Compound 1152]	45%	1%
CN(C)CCOc1ccc(CCNC(=O)c2ccc3c(c2)NC(=O)c2ccccc2S3)cc1 [Compound 1154]	50%	90%
CN(C)CCCOc1ccc(CCNC(=O)c2ccc3c(c2)NC(=O)c2ccccc2S3)cc1.Cl [Compound 1155]	103%	18%
CCOc1ccccc1CCNC(=O)c1ccc2c(c1)NC(=O)c1ccccc1S2 [Compound 1156]	106%	16%
CCOc1cccc(CCNC(=O)c2ccc3c(c2)NC(=O)c2ccccc2S3)c1 [Compound 1157]	48%	1%
Cc1ccccc1CCNC(=O)c1ccc2c(c1)NC(=O)c1ccccc1S2 [Compound 1158]	120%	37%
COc1ccccc1CNC(=O)c1ccc2c(c1)NC(=O)c1ccccc1S2 [Compound 1159]	92%	8%
COc1cccc(CNC(=O)c2ccc3c(c2)NC(=O)c2ccccc2S3)c1 [Compound 1160]	105%	2%
COc1ccc(CNC(=O)c2ccc3c(c2)NC(=O)c2ccccc2S3)cc1 [Compound 1161]	99%	1%
O=C(NCc1ccc(OC(F)(F)F)cc1)c1ccc2c(c1)NC(=O)c1ccccc1S2 [Compound 1162]	99%	61%
Cc1cccc(CNC(=O)c2ccc3c(c2)NC(=O)c2ccccc2S3)c1 [Compound 1163]	104%	3%
Cc1ccc(CNC(=O)c2ccc3c(c2)NC(=O)c2ccccc2S3)cc1 [Compound 1164]	103%	27%
CC(C)(C)c1ccc(CNC(=O)c2ccc3c(c2)NC(=O)c2ccccc2S3)cc1 [Compound 1165]	82%	5%
O=C(NCc1cccc(C(F)(F)F)c1)c1ccc2c(c1)NC(=O)c1ccccc1S2 [Compound 1166]	119%	10%
O=C(NCc1ccccc1F)c1ccc2c(c1)NC(=O)c1ccccc1S2 [Compound 1167]	124%	57%
O=C(NCc1cccc(F)c1)c1ccc2c(c1)NC(=O)c1ccccc1S2 [Compound 1168]	117%	10%
O=C(NCC1CCCCC1)c1ccc2c(c1)NC(=O)c1ccccc1S2 [Compound 1169]	107%	39%
O=C(NCCC12CC3CC(CC(C3)C1)C2)c1ccc2c(c1)NC(=O)c1ccccc1S2 [Compound 1170]	95%	1%
COCCNC(=O)c1ccc2c(c1)NC(=O)c1ccccc1S2 [Compound 1171]	103%	49%
O=C(NCCO)c1ccc2c(c1)NC(=O)c1ccccc1S2 [Compound 1172]	107%	51%
